This note sets out measurements from patent US12252524B2, “GIP/GLP1 co-agonist compounds” (Eli Lilly and Company, priority 2018, dated 2025).

In experiment [1] the target is T1, human Gcg receptor (Homo sapiens, UniProt P47871).
T1 construct: expressed in transfected cells; crude membranes
Briefly: [125I]-Glucagon binding (SPA), human Gcg receptor. Conditions: read-out: hGLcgR Ki, nM (SEM, n). The essentials: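 Crude membranes from cells expressing the receptor, prepared by hypotonic lysis in 50 mM Tris HCl pH 7.5 with protease inhibitors, homogenization and differential centrifugation, were used in a WGA-bead SPA. Binding buffer: 25 mM HEPES pH 7.4, 2.5 mM CaCl2, 1 mM MgCl2, bacitracin, Tween-20.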

Experiment [2] has as its target T2, human GIP receptor (Homo sapiens, UniProt P48546).
T2 construct: expressed in transfected cells; crude membranes
T2 sequence (P48546 22-466): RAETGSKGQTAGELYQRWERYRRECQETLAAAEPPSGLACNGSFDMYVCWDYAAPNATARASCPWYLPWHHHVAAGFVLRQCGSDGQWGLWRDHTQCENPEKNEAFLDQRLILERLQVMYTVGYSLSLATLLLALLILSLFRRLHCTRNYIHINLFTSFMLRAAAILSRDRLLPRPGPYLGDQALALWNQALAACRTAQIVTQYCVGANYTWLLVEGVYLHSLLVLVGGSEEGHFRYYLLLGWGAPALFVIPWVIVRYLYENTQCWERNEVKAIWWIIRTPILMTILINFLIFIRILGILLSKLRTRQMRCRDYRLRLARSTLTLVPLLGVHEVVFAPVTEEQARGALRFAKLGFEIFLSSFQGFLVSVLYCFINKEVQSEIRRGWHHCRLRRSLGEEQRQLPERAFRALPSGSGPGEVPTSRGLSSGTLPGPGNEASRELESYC
The experiment in a line: [125I]-GIP binding (SPA), human GIP receptor. Conditions: read-out: hGIPR Ki, nM (SEM, n).

In experiment [3] the target is human GLP-1 receptor (GLP-1R) (Homo sapiens, UniProt P43220). The experiment in a line: cAMP pharmacological functional assay in presence of casein, hGLP-1R. Conditions: HEK293 cells expressing hGLP-1R, 0.1% Casein, geometric mean; read-out: hGLP1R cAMP Rel EC50 nM (SEM, n). In kind it is cell-based.
human GLP-1 receptor (GLP-1R), sequence (P43220 24-463): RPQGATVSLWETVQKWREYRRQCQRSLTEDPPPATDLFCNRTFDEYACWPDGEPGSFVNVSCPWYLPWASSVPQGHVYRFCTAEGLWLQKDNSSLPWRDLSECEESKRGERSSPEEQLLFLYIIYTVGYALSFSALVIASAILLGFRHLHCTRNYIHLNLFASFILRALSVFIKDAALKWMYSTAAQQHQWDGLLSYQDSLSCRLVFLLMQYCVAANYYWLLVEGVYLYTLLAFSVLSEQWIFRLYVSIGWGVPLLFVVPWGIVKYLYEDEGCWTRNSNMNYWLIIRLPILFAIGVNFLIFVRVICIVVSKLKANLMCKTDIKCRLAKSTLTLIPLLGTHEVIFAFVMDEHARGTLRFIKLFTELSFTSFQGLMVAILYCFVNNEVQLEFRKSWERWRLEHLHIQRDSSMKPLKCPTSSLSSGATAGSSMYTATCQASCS
The target of experiment [4] is T3, gastric inhibitory peptide receptor (GIPR) (Homo sapiens, UniProt P48546).
T3 sequence (P48546 22-466): T2 sequence (P48546 22-466)
The experiment in a line: cAMP pharmacological functional assay in presence of casein, hGIPR. In kind it is cell-based. Conditions: HEK293 cells expressing hGIPR, 0.1% Casein, geometric mean; read-out: hGIPR cAMP Rel EC50 nM (SEM, n).

For experiment [5], the target named is T4, human GLP-1R (Homo sapiens, UniProt P43220). The experiment in a line: [125I]-GLP-1 binding (SPA), human GLP-1 receptor. Further details: expressed in transfected cells; crude membranes. Particulars: read-out: hGLP1R Ki, (nM) (SEM, n). The essentials: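 Ki values are geometric means with SEM over independent replicates on different days, derived from IC50s fitted by four-parameter nonlinear regression. The assay used crude cell membranes in HEPES buffer, pH 7.4, containing CaCl2, MgCl2, bacitracin and TWEEN-20.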
T4 sequence (P43220 24-463): as above

Experiment [6] has as its target T4, human GLP-1R. Briefly: GLP-1R CHO cell β-arrestin recruitment assay. In kind it is cell-based. Further details: host or cells: CHO-K1 PathHunter cells, assay-ready frozen. Particulars: for EC50: CHO-K1 cells. An excerpt:
Activated G-protein coupled receptors can interact with the β-arrestin family of signalling proteins. […] CHO-K1 cells expressing Pro-Link-tagged Human GLP-1R and enzyme-acceptor-tagged β-arrestin-2 may be obtained from DiscoveRx and prepared as assay-ready frozen cells. Test peptides are solubilized in DMSO and serial dilutions are perfomed using the Echo acoustic dispenser (LabCyte). Assay media is the PathHunter Cell Assay Buffer (DiscoveRx) containing 0.1% w/v hydrolyzed Casein (Sigma). […] Plates are incubated for 90 minutes in a 37′C/5% C02 incubator and 10 ul of PathHunter detection reagent is added (DiscoveRx) and plates are incubated at room temperature for 60 minutes. Luminescence signal is measured. Peptide concentration-response curves fit to a four-parameter logistic model to calculate potency as an EC50.

The mark [7] stands for this setting: PathHunter β-arrestin-2 recruitment, 0.1% casein, read-out: hGLP1R B-Arrestin2 Rel EC50 uM (SEM, n).

Read-outs that look alike come from different tables or passages of the source. Numbered stars: 1 amine (or outer) side, 2 acyl side, 3 side chain; on linkers, the order of the positions; unused ones are H or OH. Square brackets hold non-standard residues; d marks the D form. Side chains are listed from the residue outwards. Peptide text beside a SMILES is read from it. * marks the point of attachment. C20 diacid = O=C(O)CCCCCCCCCCCCCCCCCCC(=O)*; γGlu = O=C(O)[C@H](CCC(=O)[*:2])N[*:1]; αMeL = CC(C)C[C@](C)(N)C(=O)O; Orn = NCCC[C@H](N)C(=O)O; AEEA = NCCOCCOCC(=O)O; Aib = CC(C)(N)C(=O)O

T1 sequence (P47871 26-477): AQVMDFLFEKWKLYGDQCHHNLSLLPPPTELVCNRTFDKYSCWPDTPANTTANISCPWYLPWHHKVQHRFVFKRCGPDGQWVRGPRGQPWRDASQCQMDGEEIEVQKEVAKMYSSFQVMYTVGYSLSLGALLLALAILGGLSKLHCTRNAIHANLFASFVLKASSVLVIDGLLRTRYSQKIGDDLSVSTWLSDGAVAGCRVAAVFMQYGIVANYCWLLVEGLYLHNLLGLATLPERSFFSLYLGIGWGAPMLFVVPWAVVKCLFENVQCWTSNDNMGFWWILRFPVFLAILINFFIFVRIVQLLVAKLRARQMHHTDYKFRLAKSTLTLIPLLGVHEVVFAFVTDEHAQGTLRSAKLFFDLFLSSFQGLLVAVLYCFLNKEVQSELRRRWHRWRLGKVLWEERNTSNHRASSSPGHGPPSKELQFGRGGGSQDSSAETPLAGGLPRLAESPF

Turning to `CC[C@H](C)[C@H](NC(=O)[C@H](CC(C)C)NC(=O)[C@H](Cc1ccc(O)cc1)NC(=O)[C@H](CCC(=O)O)NC(=O)[C@@H](NC(=O)[C@H](Cc1ccccc1)NC(=O)[C@H](C)NC(=O)C(C)(C)NC(=O)[C@H](CCC(N)=O)NC(=O)[C@H](C)NC(=O)[C@H](CCCCNC(=O)COCCOCCNC(=O)COCCOCCNC(=O)CC[C@H](NC(=O)CCCCCCCCCCCCCCCCCCC(=O)O)C(=O)O)NC(=O)[C@H](CCCN)NC(=O)[C@H](CC(=O)O)NC(=O)[C@H](CC(C)C)NC(=O)[C@](C)(CC(C)C)NC(=O)[C@@H](NC(=O)[C@H](CO)NC(=O)[C@H](Cc1ccc(O)cc1)NC(=O)[C@H](CC(=O)O)NC(=O)[C@H](CO)NC(=O)[C@@H](NC(=O)[C@H](Cc1ccccc1)NC(=O)[C@@H](NC(=O)CNC(=O)[C@H](CCC(=O)O)NC(=O)C(C)(C)NC(=O)[C@H](N)Cc1ccc(O)cc1)[C@@H](C)O)[C@@H](C)O)[C@@H](C)CC)C(C)C)C(=O)N[C@@H](CCC(=O)O)C(=O)NCC(=O)NCC(=O)N1CCC[C@H]1C(=O)N[C@@H](CO)C(=O)N[C@@H](CO)C(=O)NCC(=O)N[C@@H](C)C(=O)N1CCC[C@H]1C(=O)N1CCC[C@H]1C(=O)N1CCC[C@H]1C(=O)N[C@@H](CO)C(N)=O` [Example 360] (H-[dY][Aib]EGTFTSDYSI[αMeL]LD[Orn]K([AEEA-AEEA-γGlu-C20 diacid])AQ[Aib]AFVEYLIEGGPSSGAPPPS-NH2), the Ki in experiment [1] was determined as 485 nM; in experiment [2] it was 0.128 nM; in experiment [5] it was 1.74 nM. In addition, the EC50 in experiment [3] stood at 0.145 nM; in experiment [4], 0.197 nM; in experiment [6] (setting [7]), 0.0395 µM. The “hGLP1R B-Arrestin2 % Top” value in experiment [6] (normalized to GLP-1 maximum control) is reported as 25.8%.

With `CC[C@H](C)[C@H](NC(=O)[C@H](CC(C)C)NC(=O)[C@H](Cc1ccc(O)cc1)NC(=O)[C@@H](CCC(=O)O)NC(=O)[C@@H](NC(=O)[C@H](Cc1ccccc1)NC(=O)[C@H](C)NC(=O)C(C)(C)NC(=O)[C@H](CCC(N)=O)NC(=O)[C@H](C)NC(=O)[C@H](CCCCNC(=O)COCCOCCNC(=O)COCCOCCNC(=O)CC[C@H](NC(=O)CCCCCCCCCCCCCCCCCCC(=O)O)C(=O)O)NC(=O)[C@H](CCCN)NC(=O)[C@H](CC(=O)O)NC(=O)[C@H](CC(C)C)NC(=O)[C@](C)(CC(C)C)NC(=O)[C@@H](NC(=O)[C@H](CO)NC(=O)[C@H](Cc1ccc(O)cc1)NC(=O)[C@H](CC(=O)O)NC(=O)[C@H](CO)NC(=O)[C@@H](NC(=O)[C@H](Cc1ccccc1)NC(=O)[C@@H](NC(=O)CNC(=O)[C@H](CCC(=O)O)NC(=O)C(C)(C)NC(=O)[C@H](N)Cc1ccc(O)cc1)[C@@H](C)O)[C@@H](C)O)[C@@H](C)CC)C(C)C)C(=O)N[C@@H](C)C(=O)NCC(=O)NCC(=O)N1CCC[C@H]1C(=O)N[C@@H](CO)C(=O)N[C@@H](CO)C(=O)NCC(=O)N[C@@H](C)C(=O)N1CCC[C@H]1C(=O)N1CCC[C@H]1C(=O)N1CCC[C@H]1C(=O)N[C@@H](CO)C(N)=O` [Example 362] (H-[dY][Aib]EGTFTSDYSI[αMeL]LD[Orn]K([AEEA-AEEA-γGlu-C20 diacid])AQ[Aib]AFV[dE]YLIAGGPSSGAPPPS-NH2), the figures for the Ki in experiment [1], in experiment [2] and in experiment [5] were over 1050 nM, 0.337 nM and 6.95 nM, respectively. The EC50 in experiment [3] was 0.365 nM; in experiment [4] it was 0.302 nM; in experiment [6] (0.1% w/v hydrolyzed Casein, read-out: hGLP1R B-Arrestin2 Rel EC50), over 11 µM; in experiment [6] (setting [7]) it was over 11 µM.

One may read the Ki as a measure of affinity in units of concentration, obtained from inhibition or displacement. In general, EC50 refers to the concentration at which the effect is half-maximal.
